{"source": "patent US6355799B1", "about": "“Substituted benzene compounds, process for their preparation, and herbicidal and defoliant compositions containing them” (ISK Americas Incorporated, priority 1997, dated 2002)", "format_in_all_cases": "in vivo", "key": {"[1]": {"tested_on": "upland rice (Oryza sp., var. Tebonnet, RICE)", "assay": "Post-emerge test, crop safety", "conditions": "phytotoxicity rating 0-100 (0 no damage, 100 complete death), 14 days after application", "outline": "(§1)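 Each test used a mechanized track sprayer delivering 187 l/ha of acetone solution at 15–1000 g ai/ha. Post-emerge foliage at 2–3 leaves was treated with added 0.25% v/v non-ionic surfactant and bottom-watered only. Injury was assessed on day 14, where 100 means total kill.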"}, "[2]": {"tested_on": "field corn (Zea mays L., var. Dekalb 535, CORN)", "assay": "Post-emerge test, crop safety", "conditions": "phytotoxicity rating 0-100 (0 no damage, 100 complete death), 14 days after application", "outline": "as §1"}, "[3]": {"tested_on": "upland rice (Oryza sp., var. Tebonnet, RICE)", "assay": "Pre-emerge test, crop safety", "conditions": "pre-emerge, rated 14 days after application, 0 = no damage, 100 = complete death", "outline": "(§2)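 Compounds in acetone were track-sprayed at 15-1000 g ai/ha (187 l/ha) on sandy loam pots: pre-emerge one day after seeding, post-emerge at 2-3 leaf stage with 0.25% v/v non-ionic surfactant. Phytotoxicity was rated 14 days later on a 0 (no damage) to 100 (complete death) scale.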"}, "[4]": {"tested_on": "field corn (Zea mays L., var. Dekalb 535, CORN)", "assay": "Pre-emerge test, crop safety", "conditions": "pre-emerge, rated 14 days after application, 0 = no damage, 100 = complete death", "outline": "as §2"}, "[5]": {"tested_on": "johnsongrass (Sorghum halepense, SORHA)", "assay": "Pre-emerge test, greenhouse herbicide activity screening", "conditions": "pre-emerge, rated 14 days after application, 0 = no damage, 100 = complete death", "outline": "(§3)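 Plants grown in 10 cm pots of sandy loam mix received acetone-dissolved compounds through a moving flat-fan nozzle. Doses ranged from 15 to 1000 g ai/ha. Pre-emerge pots were seeded one day earlier, post-emerge pots 8–21 days earlier. Fourteen days on, each pot was graded 0–100 for damage.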"}, "[6]": {"tested_on": "velvetleaf (Abutilon theophrasti, ABUTH)", "assay": "Pre-emerge test, greenhouse herbicide activity screening", "conditions": "pre-emerge, rated 14 days after application, 0 = no damage, 100 = complete death", "outline": "as §3"}, "[7]": {"tested_on": "barnyardgrass (Echinochloa crus-galli, ECHCG)", "assay": "Pre-emerge test, greenhouse herbicide activity screening", "conditions": "pre-emerge, rated 14 days after application, 0 = no damage, 100 = complete death", "outline": "as §3"}, "[8]": {"tested_on": "ivyleaf morningglory (Ipomoea hederacea, IPOHE)", "assay": "Pre-emerge test, greenhouse herbicide activity screening", "conditions": "pre-emerge, rated 14 days after application, 0 = no damage, 100 = complete death", "outline": "as §3"}, "[9]": {"tested_on": "sicklepod (Cassia obtusifolia, CASOB)", "assay": "Pre-emerge test, greenhouse herbicide activity screening", "conditions": "pre-emerge, rated 14 days after application, 0 = no damage, 100 = complete death", "outline": "as §3"}, "[10]": {"tested_on": "large crabgrass (Digitaria sanguinalis, DIGSA)", "assay": "Pre-emerge test, greenhouse herbicide activity screening", "conditions": "pre-emerge, rated 14 days after application, 0 = no damage, 100 = complete death", "outline": "as §3"}, "[11]": {"tested_on": "green foxtail (Setaria viridis, SETVI)", "assay": "Pre-emerge test, greenhouse herbicide activity screening", "conditions": "pre-emerge, rated 14 days after application, 0 = no damage, 100 = complete death", "outline": "as §3"}, "[12]": {"tested_on": "lambsquarters (Chenopodium album, CHEAL)", "assay": "Pre-emerge test, greenhouse herbicide activity screening", "conditions": "pre-emerge, rated 14 days after application, 0 = no damage, 100 = complete death", "outline": "as §3"}, "[13]": {"tested_on": "redroot pigweed (Amaranthus retroflexus, AMARE)", "assay": "Pre-emerge test, greenhouse herbicide activity screening", "conditions": "pre-emerge, rated 14 days after application, 0 = no damage, 100 = complete death", "outline": "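Herbicidal damage is scored 0 (none) to 100 (complete plant death) two weeks after a simulated field spray. Rates span 15–1000 g ai/ha, delivered in acetone at 187 l/ha. For post-emergence treatments, plants have 2–3 leaves and the spray carries 0.25% v/v non-ionic surfactant.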"}, "[14]": {"tested_on": "johnsongrass (Sorghum halepense, SORHA)", "assay": "Post-emerge test, greenhouse herbicide activity screening", "conditions": "phytotoxicity rating 0-100 (0 no damage, 100 complete death), 14 days after application", "outline": "(§4)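 Sandy loam pots; pre-emerge: sown 1 d pre-spray, surface-watered after, then bottom-watered. Post-emerge: sown 8–21 d before, 2–3 leaf stage, + 0.25% v/v NIS, bottom-watered. Acetone, 187 l/ha track spray, 15–1000 g ai/ha. 0–100 injury score, day 14.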"}, "[15]": {"tested_on": "velvetleaf (Abutilon theophrasti, ABUTH)", "assay": "Post-emerge test, greenhouse herbicide activity screening", "conditions": "phytotoxicity rating 0-100 (0 no damage, 100 complete death), 14 days after application", "outline": "as §4"}, "[16]": {"tested_on": "barnyardgrass (Echinochloa crus-galli, ECHCG)", "assay": "Post-emerge test, greenhouse herbicide activity screening", "conditions": "phytotoxicity rating 0-100 (0 no damage, 100 complete death), 14 days after application", "outline": "as §4"}, "[17]": {"tested_on": "ivyleaf morningglory (Ipomoea hederacea, IPOHE)", "assay": "Post-emerge test, greenhouse herbicide activity screening", "conditions": "phytotoxicity rating 0-100 (0 no damage, 100 complete death), 14 days after application", "outline": "as §4"}, "[18]": {"tested_on": "sicklepod (Cassia obtusifolia, CASOB)", "assay": "Post-emerge test, greenhouse herbicide activity screening", "conditions": "phytotoxicity rating 0-100 (0 no damage, 100 complete death), 14 days after application", "outline": "as §4"}, "[19]": {"tested_on": "redroot pigweed (Amaranthus retroflexus, AMARE)", "assay": "Post-emerge test, greenhouse herbicide activity screening", "conditions": "phytotoxicity rating 0-100 (0 no damage, 100 complete death), 14 days after application", "outline": "as §4"}, "[20]": {"tested_on": "large crabgrass (Digitaria sanguinalis, DIGSA)", "assay": "Post-emerge test, greenhouse herbicide activity screening", "conditions": "phytotoxicity rating 0-100 (0 no damage, 100 complete death), 14 days after application", "outline": "as §4"}, "[21]": {"tested_on": "green foxtail (Setaria viridis, SETVI)", "assay": "Post-emerge test, greenhouse herbicide activity screening", "conditions": "phytotoxicity rating 0-100 (0 no damage, 100 complete death), 14 days after application", "outline": "as §4"}, "[22]": {"tested_on": "lambsquarters (Chenopodium album, CHEAL)", "assay": "Post-emerge test, greenhouse herbicide activity screening", "conditions": "phytotoxicity rating 0-100 (0 no damage, 100 complete death), 14 days after application", "outline": "as §4"}}}
{"smiles": "Cn1c(C(F)(F)F)cc(=O)n(-c2c(F)cc(Cl)c(OCC#N)c2N)c1=O", "note": "[Compound 1-18]", "values": [{"measurement": "Post-emerge Herbicidal Activity RICE (crop damage)", "setting": "[1]; 63 g ai/ha", "value": 0}, {"measurement": "Post-emerge Herbicidal Activity RICE (crop damage)", "setting": "[1]; 250 g ai/ha", "value": 0}, {"measurement": "Post-emerge Herbicidal Activity CORN (crop damage)", "setting": "[2]; 63 g ai/ha", "value": 0}, {"measurement": "Post-emerge Herbicidal Activity CORN (crop damage)", "setting": "[2]; 250 g ai/ha", "value": 0}, {"measurement": "Pre-emerge crop damage RICE (phytotoxicity rating, scale 0-100)", "setting": "[3]; 63 g ai/ha", "value": 30}, {"measurement": "Pre-emerge crop damage RICE (phytotoxicity rating, scale 0-100)", "setting": "[3]; 250 g ai/ha", "value": 70}, {"measurement": "Pre-emerge crop damage CORN (phytotoxicity rating, scale 0-100)", "setting": "[4]; 63 g ai/ha", "value": 40}, {"measurement": "Pre-emerge crop damage CORN (phytotoxicity rating, scale 0-100)", "setting": "[4]; 250 g ai/ha", "value": 90}, {"measurement": "Pre-emerge Herbicidal Activity SORHA (phytotoxicity rating, scale 0-100)", "setting": "[5]; 63 g ai/ha", "value": 70}, {"measurement": "Pre-emerge Herbicidal Activity SORHA (phytotoxicity rating, scale 0-100)", "setting": "[5]; 250 g ai/ha", "value": 100}, {"measurement": "Pre-emerge Herbicidal Activity ABUTH (phytotoxicity rating, scale 0-100)", "setting": "[6]; 63 g ai/ha", "value": 100}, {"measurement": "Pre-emerge Herbicidal Activity ABUTH (phytotoxicity rating, scale 0-100)", "setting": "[6]; 250 g ai/ha", "value": 100}, {"measurement": "Pre-emerge Herbicidal Activity ECHCG (phytotoxicity rating, scale 0-100)", "setting": "[7]; 63 g ai/ha", "value": 0}, {"measurement": "Pre-emerge Herbicidal Activity ECHCG (phytotoxicity rating, scale 0-100)", "setting": "[7]; 250 g ai/ha", "value": 80}, {"measurement": "Pre-emerge Herbicidal Activity IPOHE (phytotoxicity rating, scale 0-100)", "setting": "[8]; 63 g ai/ha", "value": 100}, {"measurement": "Pre-emerge Herbicidal Activity IPOHE (phytotoxicity rating, scale 0-100)", "setting": "[8]; 250 g ai/ha", "value": 100}, {"measurement": "Pre-emerge Herbicidal Activity CASOB (phytotoxicity rating, scale 0-100)", "setting": "[9]; 63 g ai/ha", "value": 70}, {"measurement": "Pre-emerge Herbicidal Activity CASOB (phytotoxicity rating, scale 0-100)", "setting": "[9]; 250 g ai/ha", "value": 100}, {"measurement": "Pre-emerge Herbicidal Activity DIGSA (phytotoxicity rating, scale 0-100)", "setting": "[10]; 63 g ai/ha", "value": 70}, {"measurement": "Pre-emerge Herbicidal Activity DIGSA (phytotoxicity rating, scale 0-100)", "setting": "[10]; 250 g ai/ha", "value": 90}, {"measurement": "Pre-emerge Herbicidal Activity SETVI (phytotoxicity rating, scale 0-100)", "setting": "[11]; 63 g ai/ha", "value": 95}, {"measurement": "Pre-emerge Herbicidal Activity SETVI (phytotoxicity rating, scale 0-100)", "setting": "[11]; 250 g ai/ha", "value": 99}, {"measurement": "Pre-emerge Herbicidal Activity CHEAL (phytotoxicity rating, scale 0-100)", "setting": "[12]; 63 g ai/ha", "value": 100}, {"measurement": "Pre-emerge Herbicidal Activity CHEAL (phytotoxicity rating, scale 0-100)", "setting": "[12]; 250 g ai/ha", "value": 100}, {"measurement": "Pre-emerge Herbicidal Activity AMARE (phytotoxicity rating, scale 0-100)", "setting": "[13]; 63 g ai/ha", "value": 100}, {"measurement": "Pre-emerge Herbicidal Activity AMARE (phytotoxicity rating, scale 0-100)", "setting": "[13]; 250 g ai/ha", "value": 100}, {"measurement": "Post-emerge Herbicidal Activity SORHA", "setting": "[14]; 63 g ai/ha", "value": 50}, {"measurement": "Post-emerge Herbicidal Activity SORHA", "setting": "[14]; 250 g ai/ha", "value": 50}, {"measurement": "Post-emerge Herbicidal Activity ABUTH", "setting": "[15]; 63 g ai/ha", "value": 100}, {"measurement": "Post-emerge Herbicidal Activity ABUTH", "setting": "[15]; 250 g ai/ha", "value": 100}, {"measurement": "Post-emerge Herbicidal Activity ECHCG", "setting": "[16]; 63 g ai/ha", "value": 0}, {"measurement": "Post-emerge Herbicidal Activity ECHCG", "setting": "[16]; 250 g ai/ha", "value": 0}, {"measurement": "Post-emerge Herbicidal Activity IPOHE", "setting": "[17]; 63 g ai/ha", "value": 80}, {"measurement": "Post-emerge Herbicidal Activity IPOHE", "setting": "[17]; 250 g ai/ha", "value": 100}, {"measurement": "Post-emerge Herbicidal Activity CASOB", "setting": "[18]; 63 g ai/ha", "value": 30}, {"measurement": "Post-emerge Herbicidal Activity CASOB", "setting": "[18]; 250 g ai/ha", "value": 95}, {"measurement": "Post-emerge Herbicidal Activity AMARE", "setting": "[19]; 63 g ai/ha", "value": 70}, {"measurement": "Post-emerge Herbicidal Activity AMARE", "setting": "[19]; 250 g ai/ha", "value": 100}, {"measurement": "Post-emerge Herbicidal Activity DIGSA", "setting": "[20]; 63 g ai/ha", "value": 50}, {"measurement": "Post-emerge Herbicidal Activity DIGSA", "setting": "[20]; 250 g ai/ha", "value": 50}, {"measurement": "Post-emerge Herbicidal Activity SETVI", "setting": "[21]; 63 g ai/ha", "value": 70}, {"measurement": "Post-emerge Herbicidal Activity SETVI", "setting": "[21]; 250 g ai/ha", "value": 70}, {"measurement": "Post-emerge Herbicidal Activity CHEAL", "setting": "[22]; 63 g ai/ha", "value": 70}, {"measurement": "Post-emerge Herbicidal Activity CHEAL", "setting": "[22]; 250 g ai/ha", "value": 100}]}
